Legend:
male Wistar rats = test: Anti-inflammatory activity: carrageenin edema method; type: in vivo; conditions: Rattus norvegicus, po, 3 hours after carrageenin, read-out: Inhibition ratio (paw swelling, vs control); for inhibition in vivo at 150 mg/kg: 150 mg/kg p.o.
Method: In this experiment, 5 male Wistar rats weighing 140±10 g were used as one group. Sixty minutes after oral administration of each drug to each animal, 0.1 ml of a 1% carrageenin solution as a phlogistic agent was injected into the plantar surface of the right hind paw of the animal to induce inflammation. The volume of the paw was measured before and 3 hours after the injection of the phlogistic agent. Swelling ratio and inhibition ratio in comparison with control group were calculated.

in vivo = conditions: mouse, po, mice, deaths counted for 7 days
Method: In this example, 3-7 male dd mice weighing 20±1 g were used as one group. Each drug was suspended in a 0.3% CMC solution and orally administered. After the administration, number of dead animals was counted for 7 days to determine LD50 value. As the reference drugs, mepirizole and benzydamine hydrochloride were dissolved in water and orally administered. The drugs and the reference drugs were also administered in the same manner as above in Examples 2-5.

male dd mice [1] = test: Muscle relaxant activity: traction test; type: in vivo; conditions: 5 mice per group
Text: (§1) In this example, 5 male dd mice weighing 20±1 g were used as one group. Prior to the experiments, mice were placed on the rod having a diameter of 3 cm and rotating at 5 r.p.m. in the reverse direction of the rotation. […] The drugs were orally administered and the muscle relaxant activity with the passage of time was examined by the following tests.
Traction test: Forefeet of the same mouse were placed on a wire to observe whether it falls or not.
(§2) In each test, the drug was considered to have a muscle relaxant activity when the mouse fell.

male dd mice [2] = test: Anticonvulsant activity: maximal electroshock convulsion test; type: in vivo; conditions: Mus musculus, po, 1 h, 60 min after administration, read-out: Maximal electroshock convulsion test, inhibition ratio; for responders at 150 mg/kg: 150 mg/kg p.o.; for responders at 300 mg/kg: 300 mg/kg p.o.; for responders at 100 mg/kg: 100 mg/kg p.o.
Text: Anticonvulsant activity was examined according to maximal electroshock convulsion test.
In this experiment, 10 male dd mice weighing 23±1 g were used as one group. Each drug was orally administered to the animals. Sixty minutes after the administration, an electric current (2000 V, 50 mA) was applied to both eyes of the mouse for 0.2 second. Drug activity was judged according to whether tonic extensor seizures were observed or not.

male dd mice [3] = test: Muscle relaxant activity: rotating rod test; type: in vivo; conditions: 5 mice per group
Method: as §1
Rotating rod test: The same mouse was placed on the rotating rod to observe whether it falls or not within 2 minutes.
as §2

male dd mice [4] = test: Analgesic activity: acetic acid writhing; type: in vivo; conditions: Mus musculus, po, 1 h, acetic acid i.p. after 60 min, read-out: Inhibition ratio (writhes, vs control); for inhibition in vivo at 150 mg/kg: 150 mg/kg p.o.
Method: In this experiment, 10 male dd mice weighing 20±1 g were used as one group for examination of analgesic activity. Sixty minutes after oral administration of each drug to each animal, 0.2 ml of a 0.7% acetic acid solution was intraperitoneally administered to the animal. Starting 10 minutes after the administration of acetic acid, the number of writhes occurred in 10 minutes was counted. Average number of writhes and inhibition ratio in comparison with control group were calculated.

male dd mice [5] = test: Muscle relaxant activity: slant test; type: in vivo; conditions: 5 mice per group
Method: as §1
Slant test: Each mouse was placed on a wire net inclined at an angle of 45° to observe whether it falls or not.
as §2

Row | SMILES | inhibition in vivo at 150 mg/kg (male Wistar rats) | LD50 at 168 h (in vivo) | Number of dropped mice, traction test (male dd mice [1]; 150 mg/kg p.o., 1 hr) | Number of dropped mice, traction test (male dd mice [1]; 150 mg/kg p.o., 2 hr) | Number of dropped mice, traction test (male dd mice [1]; 150 mg/kg p.o., 3 hr) | Number of dropped mice, traction test (male dd mice [1]; 300 mg/kg p.o., 1 hr) | Number of dropped mice, traction test (male dd mice [1]; 300 mg/kg p.o., 2 hr) | Number of dropped mice, traction test (male dd mice [1]; 300 mg/kg p.o., 3 hr) | responders at 150 mg/kg (male dd mice [2]) | responders at 300 mg/kg (male dd mice [2]) | Number of dropped mice, rotating rod test (male dd mice [3]; 150 mg/kg p.o., 1 hr) | Number of dropped mice, rotating rod test (male dd mice [3]; 150 mg/kg p.o., 2 hr) | Number of dropped mice, rotating rod test (male dd mice [3]; 150 mg/kg p.o., 3 hr) | inhibition in vivo at 150 mg/kg (male dd mice [4]) | Number of dropped mice, slant test (male dd mice [5]; 150 mg/kg p.o., 1 hr) | Number of dropped mice, slant test (male dd mice [5]; 150 mg/kg p.o., 2 hr) | Number of dropped mice, slant test (male dd mice [5]; 150 mg/kg p.o., 3 hr) | Number of dropped mice, slant test (male dd mice [5]; 300 mg/kg p.o., 1 hr) | Number of dropped mice, slant test (male dd mice [5]; 300 mg/kg p.o., 2 hr) | Number of dropped mice, slant test (male dd mice [5]; 300 mg/kg p.o., 3 hr) | also measured
1 | Cc1ccc2oc(C(=O)N(C)C)c(C)c2c1 [Compound (E), N,N,3,5-Tetramethylbenzo-[b]furan-2-carboxamide] | 14.7% | > 1000 mg/kg | 0 mice | 0 mice | 0 mice | 3 mice | 1 mice | 1 mice | 10% | 57.1% | 1 mice | 0 mice | 0 mice | 22.6% | 1 mice | 0 mice | 0 mice | 3 mice | 2 mice | 1 mice | Number of dropped mice, rotating rod test (male dd mice [3]; 300 mg/kg p.o., 1 hr): 4 mice; Number of dropped mice, rotating rod test (male dd mice [3]; 300 mg/kg p.o., 2 hr): 2 mice; Number of dropped mice, rotating rod test (male dd mice [3]; 300 mg/kg p.o., 3 hr): 2 mice
2 | COc1ccc2oc(C(=O)N(C)C)c(C)c2c1 [Compound (F), 5-Methoxy-N,N,3-trimethyl-benzo[b]furan-2-carboxamide] | 0% | > 1000 mg/kg | 1 mice | 0 mice | 0 mice | 5 mice | 3 mice | 1 mice | 30% | 100% | 1 mice | 0 mice | 0 mice | 11% | – | – | – | 4 mice | 2 mice | 1 mice | Number of dropped mice, rotating rod test (male dd mice [3]; 300 mg/kg p.o., 1 hr): 5 mice; Number of dropped mice, rotating rod test (male dd mice [3]; 300 mg/kg p.o., 2 hr): 5 mice; Number of dropped mice, rotating rod test (male dd mice [3]; 300 mg/kg p.o., 3 hr): 3 mice
3 | Cc1c(C(=O)N(C)C)oc2ccc(Cl)cc12 [Compound (G), 5-Chloro-N,N,3-trimethyl-benzo[b]furan-2-carboxamide] | 45.7% | > 1000 mg/kg | 3 mice | 3 mice | 2 mice | – | – | – | – | – | 5 mice | 4 mice | 3 mice | 91.4% | 3 mice | 2 mice | 2 mice | 5 mice | 5 mice | 5 mice | Number of dropped mice, traction test (male dd mice [1]; 75 mg/kg p.o., 1 hr): 1 mice; Number of dropped mice, traction test (male dd mice [1]; 75 mg/kg p.o., 2 hr): 1 mice; Number of dropped mice, traction test (male dd mice [1]; 75 mg/kg p.o., 3 hr): 1 mice; responders at 50 mg/kg (male dd mice [2]; 50 mg/kg p.o.): 0%; responders at 75 mg/kg (male dd mice [2]; 75 mg/kg p.o.): 40%; responders at 100 mg/kg (male dd mice [2]): 100%; Number of dropped mice, rotating rod test (male dd mice [3]; 75 mg/kg p.o., 1 hr): 3 mice; Number of dropped mice, rotating rod test (male dd mice [3]; 75 mg/kg p.o., 2 hr): 1 mice; Number of dropped mice, rotating rod test (male dd mice [3]; 75 mg/kg p.o., 3 hr): 1 mice
4 | COc1cc(C)nc(-n2nc(C)cc2OC)n1 [Mepirizole, mepirizole, reference compound] | – | 500 to 1000 mg/kg | 2 mice | 0 mice | 0 mice | – | – | – | 85.7% | 100% | 5 mice | 1 mice | 0 mice | – | 3 mice | 1 mice | 0 mice | – | – | – | inhibition in vivo at 100 mg/kg (male Wistar rats; 100 mg/kg p.o.): 29.2%; inhibition in vivo at 200 mg/kg (male Wistar rats; 200 mg/kg p.o.): 47%; responders at 100 mg/kg (male dd mice [2]): 20%; inhibition in vivo at 50 mg/kg (male dd mice [4]; 50 mg/kg p.o.): 30.4%; inhibition in vivo at 200 mg/kg (male dd mice [4]; 200 mg/kg p.o.): 84.7%

Source: US4353923A, “Pharmaceutical composition containing a benzofurancarboxamide derivative as the active ingredient” (Kyowa Hakko Kogyo Co., Ltd., priority 1980, dated 1982)
